Drawing on patent US10899747B2, “Biaryl piperidine amide compounds and methods of use thereof” (Athenex, Inc., priority 2017, dated 2021), this text covers IC50 for 50 molecules.

For the test, the system named is IL-2. As to the kind of experiment: PHA-IL2 (cell activation and cytokine analysis). As to conditions: 50% inhibition concentration class. The format is cell-based. In a few lines: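 Cells were seeded in 96-well plates at 1.0-2.0×10^6 cells/ml in 150 ul of RPMI containing 0.5% fetal calf serum. Test compounds, at up to ≤20 uM, were preincubated with the cells for 30 minutes, then phytohemagglutinin (PHA) was added and cultures were stimulated for 24-48 hours at 37 degrees C./5% CO2. Supernatant IL-2 was then quantified by standard ELISA.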

A value given as a limit tells only on which side of the number the result lay.

For the molecule `CCOc1ccccc1-c1ccccc1OCC(=O)N1CCC(CCc2ccc3c(c2)OCO3)CC1` [Compound 207], the concentration for half-maximal inhibition (IC50) is less than 1 µM.
The molecule `O=C(O)c1cccc(-c2ccccc2OCC(=O)N2CCC(CCc3ccc4c(c3)OCO4)CC2)c1` [Compound 158] displayed an IC50 of 10 to 50 µM.
Under `O=C(COc1ccccc1-c1ccc(Cl)nc1)N1CCC(CCc2ccc(O)cc2)CC1` [Compound 283] stands less than 1 µM.
For `O=C(COc1ccccc1-c1cccc(O)c1)N1CCC(CCc2ccc3c(c2)OCO3)CC1` [Compound 160], the half-inhibitory concentration (IC50) fell in the range of 1 to 10 µM.
With `CCCC(Oc1ccccc1-c1ccccc1)C(=O)N1CCC(CCc2ccc3c(c2)OCCCO3)CC1` (centres unmarked) [Compound 210], the IC50 was less than 1 µM.
Under `O=C(CCc1ccccc1-c1ccc(F)cc1)N1CCC(CCc2ccc3c(c2)OCO3)CC1` [Compound 222] stands 1 to 10 µM; under `O=C(COc1ccccc1-c1ccc2[nH]ncc2c1)N1CCC(CCc2ccccc2)CC1` [Compound 272], less than 1 µM; under `N#Cc1ccc(-c2ccccc2OCC(=O)N2CCC(CCc3cccc(OC(F)F)c3)CC2)cc1` [Compound 434], less than 1 µM.
Molecule `O=C(COc1ccccc1-c1ccccc1)N1CCC(/C=C/c2ccc3c(c2)OCO3)CC1` [Compound 253] gave an IC50 of less than 1 µM.
Under `O=C(COc1ccccc1-c1ccc(F)cc1O)N1CCC(CCc2ccc(F)c(C(F)(F)F)c2)CC1` [Compound 307] stands 1 to 10 µM.
Under `COc1ccc(CCC2CCN(C(=O)C(C)Oc3c(C)cccc3-c3ccccc3)CC2)cc1` (centres unmarked) [Compound 234] stands 1 to 10 µM.
Under `C#CCOc1cccc(CCC2CCN(C(=O)COc3ccc(C#N)cc3-c3ccc(C(=O)c4ccccc4)cc3)CC2)c1` [Compound 418] stands less than 1 µM; under `CCN(CC)C(=O)c1ccc(-c2ccccc2OCC(=O)N2CCC(CCc3ccc4c(c3)OCO4)CC2)cc1` [Compound 168], 1 to 10 µM; under `O=C(COc1ccc(C(F)(F)F)cc1-c1ccc(F)cc1O)N1CCC(CCc2ccccc2)CC1` [Compound 351], less than 1 µM.
The molecule `Cc1ccc(F)c(-c2ccccc2OCC(=O)N2CCC(CCc3ccc4c(c3)OCO4)CC2)c1` [Compound 239] registered an IC50 of less than 1 µM.
In turn, `CC(C)COc1cccc(-c2ccccc2OCC(=O)N2CCC(CCc3ccc4c(c3)OCO4)CC2)c1` [Compound 245] showed an IC50 of 1 to 10 µM.
Under `O=C(C1CC1c1cc2c(cc1-c1ccccc1)OCO2)N1CCC(CCc2ccc3c(c2)OCO3)CC1` (centres unmarked) [Compound 260] stands less than 1 µM; under `Cn1ncc2cc(-c3ncccc3OCC(=O)N3CCC(CCc4cccc(OCCN5CCOCC5)c4)CC3)ccc21` [Compound 374], 10 to 50 µM.
On to `N#Cc1ccc(-c2ncccc2OCC(=O)N2CCC(CCc3ccc4c(c3)OCCO4)CC2)cn1` [Compound 335], for which the IC50 lay in the range of 1 to 10 µM.
`O=C(/C=C/c1ccccc1-c1ccc(F)cc1O)N1CCC(CCc2ccc3c(c2)OCO3)CC1` [Compound 344] showed an IC50 of 1 to 10 µM.
`COc1cccc(CCC2CCN(C(=O)COc3cccnc3-c3ccc(F)cc3O)CC2)c1` [Compound 350] came in with an IC50 of less than 1 µM.
Under `O=C(COc1ccccc1-c1ccc2[nH]cnc2c1)N1CCC(CCc2cccc3ccccc23)CC1` [Compound 402] stands less than 1 µM; under `O=C(COc1cccnc1-c1ccc(F)cc1O)N1CCC(CCc2cccc(OC3CCCC3)c2)CC1` [Compound 410], less than 1 µM; under `CCOc1ccc(-c2ccccc2OCC(=O)N2CCC(CCc3ccc4c(c3)OCO4)CC2)cc1` [Compound 186], 1 to 10 µM.
Under `O=C(COc1ccccc1-c1ccc2[nH]ncc2c1)N1CCC(CCc2ccc3c(c2)OCCCO3)CC1` [Compound 267] stands less than 1 µM; under `NS(=O)(=O)c1ccc(-c2ccccc2OCC(=O)N2CCC(CCc3ccc4c(c3)OCO4)CC2)cc1` [Compound 181], 10 to 50 µM.
Molecule `N#Cc1ccc(-c2ccccc2C2CC2C(=O)N2CCC(CCc3ccccc3)CC2)cc1` (centres unmarked) [Compound 404] came in with an IC50 of less than 1 µM.
`C#CCOc1cccc(CCC2CCN(C(=O)COc3ccccc3-c3ccc(C(=O)c4ccccc4)cc3)CC2)c1` [Compound 416] came in with an IC50 of 1 to 10 µM.
Under `O=C(COc1cccnc1-c1ccc(F)cc1O)N1CCC(CCc2cccc(OCCN3CCCCC3)c2)CC1` [Compound 360] stands 1 to 10 µM.
As to `O=C(COc1ccccc1-c1ccc(-c2ccccc2)cc1)N1CCC(CCc2ccc3c(c2)OCO3)CC1` [Compound 218], the IC50 lay in the range of 1 to 10 µM.
The molecule `CC1Oc2ccc(CCC3CCN(C(=O)COc4ccccc4-c4ccc5[nH]ncc5c4)CC3)cc2OC1C` (centres unmarked) [Compound 268] came in with an IC50 of less than 1 µM.
As to `CCOC(=O)c1cccc(-c2ccccc2OCC(=O)N2CCC(CCc3ccc4c(c3)OCO4)CC2)c1` [Compound 159], the IC50 is 1 to 10 µM.
`O=C(COc1ccncc1-c1ccc(F)cc1O)N1CCC(CCc2ccc3c(c2)OCO3)CC1` [Compound 331] returned an IC50 of 10 to 50 µM.
Under `O=C(COc1ccccc1-c1ccc(F)cc1)N1CCC(CCc2ccc3c(c2)OCCCO3)CC1` [Compound 230] stands less than 1 µM.
For the molecule `O=C(COc1cccnc1-c1ccc2[nH]ncc2c1)N1CCC(CCc2ccncc2)CC1` [Compound 396], the IC50 fell in the range of 1 to 10 µM.
As for `O=C(COc1ccccc1-c1ccccc1O)N1CCC(CCc2ccc3c(c2)OCCCO3)CC1` [Compound 233], the IC50 is less than 1 µM.
Under `O=C(COc1ccccc1-c1ccc2[nH]ncc2c1)N1CCC(CCc2ccc3c(c2)OCO3)CC1` [Compound 249] stands less than 1 µM; under `CC(C)Oc1ccccc1CCC1CCN(C(=O)COc2ccccc2-c2ccc(F)cc2O)CC1` [Compound 431], less than 1 µM.
`O=C(COc1ccccc1-c1ccc(F)nc1)N1CCC(CCc2ccc3c(c2)OCO3)CC1` [Compound 193]: the IC50 is less than 1 µM.
On to `O=C(COc1cccnc1-c1ccc(F)nc1)N1CCC(CCc2ccc3c(c2)OCCO3)CC1` [Compound 341], for which the IC50 is 1 to 10 µM.
With `O=C(COc1ccccc1-c1cccc(OC(F)(F)F)c1)N1CCC(CCc2ccc3c(c2)OCO3)CC1` [Compound 179], the IC50 was 1 to 10 µM.
With `O=C(COc1ccccc1-c1ccc(F)cc1O)N1CCC(CCc2ccncc2)CC1` [Compound 392], the IC50 lay within 1 to 10 µM.
Under `O=C(COc1ccccc1-c1ccccc1)N1CCC(CCc2ccc3c(c2)OCCCO3)CC1` [Compound 208] stands less than 1 µM; under `NC(=O)c1cccc(-c2ccccc2OCC(=O)N2CCC(CCc3ccc4c(c3)OCO4)CC2)c1` [Compound 162], 1 to 10 µM.
As for `Cn1ccc2cc(-c3ccccc3OCC(=O)N3CCC(CCc4ccc5c(c4)OCO5)CC3)ccc21` [Compound 384], the IC50 is 1 to 10 µM.
Under `O=C(NCCO)c1cccc(-c2ccccc2OCC(=O)N2CCC(CCc3ccc4c(c3)OCO4)CC2)c1` [Compound 172] stands 10 to 50 µM; under `Cc1cccc(-c2ccccc2OCC(=O)N2CCC(CCc3ccc4c(c3)OCO4)CC2)c1` [Compound 167], 1 to 10 µM; under `CCc1ccc(OCC(=O)N2CCC(CCc3ccc4c(c3)OCO4)CC2)c(-c2ccc(Cl)nc2)c1` [Compound 275], 1 to 10 µM.
Consider `O=C(COc1ccccc1-c1ccc(F)cc1O)N1CCC(CCc2cccc(C(F)(F)F)c2)CC1` [Compound 310], for which the IC50 was less than 1 µM.
`O=C(COc1ccccc1-c1ccc2[nH]ncc2c1)N1CCC(CCc2ccc(O)cc2)CC1` [Compound 281] had a half-maximal inhibitory concentration (IC50) of less than 1 µM.
